Laboratory results as given in PubChem BioAssay (NCI).
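How tested: cells in 96-well plates exposed to compound for 48 hours at five concentrations. GI50: concentration for 50% inhibition of growth. TGI marks complete inhibition of growth.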

Key:
Assay in all cases: NCI anticancer screen, dose series, 48 h
[1] = system: T-47D breast
[2] = system: MDA-MB-435
[3] = system: HT29 colon
[4] = system: U251 CNS
[5] = system: EKVX NSCLC
[6] = system: SR leukemia
[7] = system: SW-620 colon
[8] = system: NCI-H522 lung
[9] = system: MCF7 breast
[10] = system: SF-295 CNS

| SMILES | TGI [1] [µM] | TGI [2] [µM] | TGI [3] [µM] | TGI [4] [µM] | TGI [5] [µM] | TGI [6] [µM] | TGI [7] [µM] | TGI [8] [µM] | TGI [9] [µM] | TGI [10] [µM] | GI50 [1] [µM] | GI50 [2] [µM] | GI50 [3] [µM] | GI50 [4] [µM] | GI50 [5] [µM] | GI50 [6] [µM] | GI50 [7] [µM] | GI50 [8] [µM] | GI50 [9] [µM] | GI50 [10] [µM] |
| --- | --- | --- | --- | --- | --- | --- | --- | --- | --- | --- | --- | --- | --- | --- | --- | --- | --- | --- | --- | --- |
| Cc1ccccc1NC(=O)O/N=C(\Cl)C(C)C | 11.3 | 30.1 | 11.7 | 39.9 | 4.94 | > 100 | 4.36 | 3.18 | 22.1 | 33.7 | – | – | – | – | – | – | – | – | – | – |
| CCOC(=O)NC(=S)N(CC(=O)c1cc(OC)c(OC)c(OC)c1)c1ccc(Cl)cc1 | 72.9 | > 100 | > 100 | > 100 | > 100 | > 100 | > 100 | > 100 | > 100 | > 100 | 23.5 | > 100 | > 100 | 99.7 | 62.4 | 38.1 | > 100 | 27.9 | > 100 | 76.7 |
| Nc1c(C(=O)c2ccc(Cl)c(Cl)c2)[nH]c(NCc2ccccc2)c1C(=S)Nc1ccccc1 | 81.2 | 18.3 | 11 | 15.7 | 29.6 | > 100 | 10.1 | 17.7 | 12.3 | 15 | – | – | – | – | – | – | – | – | – | – |
| O=C(O)C(Cc1ccccc1)NCc1c(O)ccc2c(-c3ccccc3)cc(=O)oc12 (stereo not given) | > 100 | > 100 | > 100 | > 100 | > 100 | > 100 | > 100 | > 100 | > 100 | > 100 | – | – | – | – | – | – | – | – | – | – |
| N#CCCC(C=O)(CCC#N)CCC#N | > 100 | > 100 | > 100 | > 100 | > 100 | > 100 | > 100 | > 100 | > 100 | > 100 | – | – | – | – | – | – | – | – | – | – |
| C/C(=C1\N=C(c2ccccc2)OC1=O)c1ccccc1 | > 100 | > 100 | > 100 | > 100 | > 100 | > 100 | > 100 | > 100 | > 100 | > 100 | – | – | – | – | – | – | – | – | – | – |
| C=C1c2nc3ccccc3n2C=C(c2ccc(C)cc2)N1c1ccc(OC)cc1 | > 100 | 49.2 | > 91.2 | > 100 | > 100 | 19.8 | > 100 | > 77.7 | > 100 | > 100 | – | – | – | – | – | – | – | – | – | – |
| NC(=O)[C@H](Cc1ccc(O)cc1)Nc1c(O)c2c(c(O)c1Cl)C(=O)C=CC2=O | 5.27 | 4 | 6.2 | > 8.11 | > 10 | 5.26 | 2.82 | 4.01 | 2.97 | > 10 | – | – | – | – | – | – | – | – | – | – |
| Clc1ccc2c(NCCCCCCNc3ccnc4cc(Cl)ccc34)ccnc2c1 | 5.42 | 12.5 | 4.44 | 5.82 | 25.9 | 19.3 | 3.78 | 3.19 | 7.27 | 5.56 | – | – | – | – | – | – | – | – | – | – |
| CC(=O)NC1C(OCc2ccccc2)OC(CO)C(O)C1OC(C)C(=O)N[C@@H](C)C(=O)N[C@H](CCC(=O)NCCNCCNc1c2ccccc2nc2cccc([N+](=O)[O-])c12)C(N)=O (stereo not given in full) | 0.598 | 0.235 | 0.668 | 3.41 | 2.74 | > 71.4 | > 38.1 | 0.0665 | 2.17 | 1.79 | – | – | – | – | – | – | – | – | – | – |
| CC(C)(CO[C@H]1C[C@H]2CC[C@@]1(C)C2(C)C)[N+](=O)[O-] | 45.6 | 34 | 30.6 | 31.5 | 46.2 | 42.3 | 59.8 | 40.5 | 49.9 | 33.9 | – | – | – | – | – | – | – | – | – | – |
| COC1(CC[C@@H](C)COC2OC(CO)C(O)C(O)C2O)OC2C[C@H]3[C@@H]4CC[C@H]5C[C@@H](OC6OC(CO)C(OC7OC(CO)C(O)C(O)C7O)C(O)C6OC6OC(C)C(O)C(O)C6O)[C@H](O)C[C@]5(C)[C@H]4CC[C@]3(C)C2[C@@H]1C (stereo not given in full) | 9.01 | 3.5 | 4.99 | 3.49 | 4.52 | 16.8 | 4.66 | 4.63 | 7.84 | 3.28 | – | – | – | – | – | – | – | – | – | – |
| O=S(=O)(Nc1nc2ccccc2nc1N1CCCCCC1)c1ccccc1 | > 100 | 64.6 | > 100 | 48.8 | > 100 | > 100 | 65.3 | 57.1 | > 100 | 70 | – | – | – | – | – | – | – | – | – | – |
| COC(=O)c1c2c(cc3c1CC1(Cc4cc5c(c(C=O)c4C1)CCC5)C3)CCC2 (stereo not given) | > 100 | 50.5 | 79.2 | 57.3 | > 100 | 53.7 | > 100 | 56.6 | > 100 | > 100 | – | – | – | – | – | – | – | – | – | – |
| COc1cc(CCNC2=CC(=O)c3nc[nH]c3C2=O)ccc1O | 73.2 | 31.4 | 53.9 | 63.3 | 47.4 | 98.4 | 58.6 | 62.3 | 33.5 | 96.4 | – | – | – | – | – | – | – | – | – | – |
| O=CCCCCCOCc1ccccc1 | > 100 | > 100 | > 100 | > 100 | > 100 | > 100 | > 100 | > 100 | > 100 | > 60.4 | – | – | – | – | – | – | – | – | – | – |
